Reference: patent US10399985B2, “(Hetero)aryl imidazoles/pyrazoles for treatment of neurological disorders” (Hoffmann-La Roche Inc., priority 2014, dated 2019)

Target: human PDE10A (Homo sapiens (Human), UniProt Q9Y233)
Assay: human PDE10A full length Scintillation Proximity Assay (SPA)
Format: biochemical
Settings: 50 nM cGMP and 50 nM [3H]-cGMP, 20 minutes at room temperature
Method: The following test was carried out in order to determine the activity of the compounds of the present invention. PDE10 activity of the compounds of the present invention was determined using a Scintillation Proximity Assay (SPA)-based method similar to the one previously described (Fawcett, L. et al., ProcNatl Acad Sci USA (2000) 97(7):3702-3707).
The human PDE10A full length assay was performed in 96-well micro titer plates. The reaction mixture of 50 μl contained 20 mM HEPES pH=7.5/10 mM MgCl2/0.05 mg/ml BSA (Sigma cat. # A-7906), 50 nM cGMP (Sigma, cat. # G6129) and 50 nM [3H]-cGMP (GE Healthcare, cat. # TRK392 S. A. 13.2 Ci/mmol), 3.75 ng/well PDE10A enzyme (Enzo Life Science, Lausen, Switzerland cat # SE-534) with or without a specific test compound. A range of concentrations of the potential inhibitor was used to generate data for calculating the concentration of inhibitor resulting in 50% of the effect (e.g. IC50, the concentration of the competitor inhibiting PDE10A activity by 50%). Non-specific activity was tested without the enzyme. The reaction was initiated by the addition of the substrate solution (cGMP and [3H]-cGMP) and allowed to progress for 20 minutes at room temperature. The reaction was terminated by adding 25 μl of YSi-SPA scintillation beads (GE Healthcare, cat. # RPNQ0150) in 18 mM zinc sulphate solution (stop reagent). After 1 h under shaking, the plate was centrifuged one minute at 170 g to allow beads to settle. Afterwards, radioactive counts were measured on a Perkin Elmer TopCount Scintillation plate reader.

Sequence of human PDE10A (Q9Y233 other isoform, or with tags, fused parts or gaps): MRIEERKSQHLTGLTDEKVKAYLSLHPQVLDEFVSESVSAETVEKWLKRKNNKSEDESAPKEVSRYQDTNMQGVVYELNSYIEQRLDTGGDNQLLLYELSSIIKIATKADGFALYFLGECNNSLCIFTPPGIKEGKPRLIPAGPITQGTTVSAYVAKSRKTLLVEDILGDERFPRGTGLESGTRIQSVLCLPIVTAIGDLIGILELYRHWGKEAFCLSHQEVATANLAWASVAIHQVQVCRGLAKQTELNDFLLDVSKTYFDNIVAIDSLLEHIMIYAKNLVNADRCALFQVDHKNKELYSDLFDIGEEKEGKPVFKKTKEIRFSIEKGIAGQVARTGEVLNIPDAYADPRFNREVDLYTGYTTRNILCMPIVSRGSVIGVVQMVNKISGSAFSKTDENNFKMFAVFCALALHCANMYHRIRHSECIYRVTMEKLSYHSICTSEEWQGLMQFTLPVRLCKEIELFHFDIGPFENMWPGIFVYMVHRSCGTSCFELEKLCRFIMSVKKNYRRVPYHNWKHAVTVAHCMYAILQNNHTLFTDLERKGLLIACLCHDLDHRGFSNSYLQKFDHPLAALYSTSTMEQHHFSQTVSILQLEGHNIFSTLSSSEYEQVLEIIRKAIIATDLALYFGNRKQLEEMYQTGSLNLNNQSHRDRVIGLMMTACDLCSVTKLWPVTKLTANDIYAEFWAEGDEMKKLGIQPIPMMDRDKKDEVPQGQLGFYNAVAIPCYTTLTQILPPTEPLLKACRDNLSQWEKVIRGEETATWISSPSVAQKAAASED

Structure (SMILES)	IC50 [nM]
Cc1nc2ccc(CCc3nc(-c4ccncc4)cn3C)nn2c1C [Example 25, 2,3-Dimethyl-6-(2-(1-methyl-4-(pyridin-4-yl)-1H-imidazol-2-yl)ethyl)imidazo[1,2-b]pyridazine]	32.3
Cc1nc2ccc(CCc3nc(-c4ccccc4)nn3C)nn2c1C [Example 21, 2,3-Dimethyl-6-(2-(1-methyl-3-phenyl-1H-1,2,4-triazol-5-yl)ethyl)imidazo[1,2-b]pyridazine]	27.7
Cc1nc2ccc(CCc3nc(-c4cnccn4)cn3C)nn2c1C [Example 29, 2,3-Dimethyl-6-(2-(1-methyl-4-(pyrazin-2-yl)-1H-imidazol-2-yl)ethyl)imidazo[1,2-b]pyridazine]	33.2
Cc1c(CO)nc2ccc(OCc3nc(-c4ccccc4)cn3C)nn12 [Example 42, (3-Methyl-6-((1-methyl-4-phenyl-1H-imidazol-2-yl)methoxy)imidazo[1,2-b]pyridazin-2-yl)methanol]	363
Cn1cc(-c2ccccc2)nc1COc1ccc2nc(C3CC3)cn2n1 [Example 37, 2-Cyclopropyl-6-((1-methyl-4-phenyl-1H-imidazol-2-yl)methoxy)imidazo[1,2-b]pyridazine]	169
Cc1c(C(F)F)nc2ccc(C#Cc3nc(-c4ccccc4)cn3C)nn12 [Example 7, 2-(Difluoromethyl)-3-methyl-6-((1-methyl-4-phenyl-1H-imidazol-2-yl)ethynyl)imidazo[1,2-b]pyridazine]	46.6
Cc1nc2ccc(CCc3nc(-c4cncnc4)cn3C)nn2c1C [Example 26, 2,3-Dimethyl-6-(2-(1-methyl-4-(pyrimidin-5-yl)-1H-imidazol-2-yl)ethyl)imidazo[1,2-b]pyridazine]	98.5
Cn1cc(-c2ccccc2)nc1CCc1ccc2nc(C3CC3)c(CO)n2n1 [Example 18, (2-Cyclopropyl-6-(2-(1-methyl-4-phenyl-1H-imidazol-2-yl)ethyl)imidazo[1,2-b]pyridazin-3-yl)methanol]	656
Cn1cc(-c2ccccc2)nc1COc1ccc2nc3c(n2n1)CCC3 [Example 44, 2-[(1-Methyl-4-phenyl-imidazol-2-yl)methoxy]-7,8-dihydro-6H-cyclopenta[1,2]imidazo[3,4-c]pyridazine]	47
Cn1cc(-c2ccccc2)nc1COc1ccc2nc(C3CC3)c(CO)n2n1 [Example 43, (2-Cyclopropyl-6-((1-methyl-4-phenyl-1H-imidazol-2-yl)methoxy)imidazo[1,2-b]pyridazin-3-yl)methanol]	167
Cn1cc(-c2ccccc2)nc1CCc1ccc2nc(C(F)(F)F)cn2n1 [Example 20, 6-(2-(1-Methyl-4-phenyl-1H-imidazol-2-yl)ethyl)-2-(trifluoromethyl)imidazo[1,2-b]pyridazine]	82.8
Cc1c(C(N)=O)nc2ccc(OCc3nc(-c4ccccc4)cn3C)nn12 [Example 39, 3-Methyl-6-((1-methyl-4-phenyl-1H-imidazol-2-yl)methoxy)imidazo[1,2-b]pyridazine-2-carboxamide]	114
Cc1nc2ccc(CCc3nc(-c4cccnc4)cn3C)nn2c1C [Example 24, 2,3-Dimethyl-6-(2-(1-methyl-4-(pyridin-3-yl)-1H-imidazol-2-yl)ethyl)imidazo[1,2-b]pyridazine]	1690
CCc1nc2ccc(OCc3nc(-c4ccccc4)cn3C)nn2c1C [Example 35, 2-Ethyl-3-methyl-6-((1-methyl-4-phenyl-1H-imidazol-2-yl)methoxy)imidazo[1,2-b]pyridazine]	264
Cn1cc(-c2ccccc2)nc1COc1ccc2nc(C(F)(F)F)cn2n1 [Example 45, 6-((1-Methyl-4-phenyl-1H-imidazol-2-yl)methoxy)-2-(trifluoromethyl)imidazo[1,2-b]pyridazine]	328

The next compounds have a lower IC50 than those just listed; values first:

IC50 [nM]	Structure (SMILES)
3.7	Cc1cc(CCc2nc(-c3ccccn3)cn2C)nn2c(C)c(C(F)(F)F)nc12 [Example 30, 3,8-Dimethyl-6-(2-(1-methyl-4-(pyridin-2-yl)-1H-imidazol-2-yl)ethyl)-2-(trifluoromethyl)imidazo[1,2-b]pyridazine]
9.2	Cc1nc2ccc(CCc3nc(-c4ncccn4)cn3C)nn2c1C [Example 23, 2,3-Dimethyl-6-(2-(1-methyl-4-(pyrimidin-2-yl)-1H-imidazol-2-yl)ethyl)imidazo[1,2-b]pyridazine]
20.5	Cc1c(C(F)(F)F)nc2ccc(CCc3nc(-c4ccccc4)cn3C)nn12 [Example 17, 3-Methyl-6-(2-(1-methyl-4-phenyl-1H-imidazol-2-yl)ethyl)-2-(trifluoromethyl)imidazo[1,2-b]pyridazine]
7.2	Cc1nc2ccc(OCc3nc(-c4ccccc4)cn3C)nn2c1C [Example 32, 2,3-Dimethyl-6-((1-methyl-4-phenyl-1H-imidazol-2-yl)methoxy)imidazo[1,2-b]pyridazine]
1.3	Cc1nc2ccc(/C=C/c3nc(-c4ccccc4)nn3C)nn2c1C [Example 11, (E)-2,3-Dimethyl-6-(2-(1-methyl-3-phenyl-1H-1,2,4-triazol-5-yl)vinyl)imidazo[1,2-b]pyridazine]
5.4	Cc1c(C#N)nc2ccc(CCc3nc(-c4ccccc4)cn3C)nn12 [Example 22, 3-Methyl-6-[2-(1-methyl-4-phenyl-1H-imidazol-2-yl)-ethyl]-imidazo[1,2-b]pyridazine-2-carbonitrile]
1	Cc1nc2ccc(C#Cc3nc(-c4ccccc4)cn3C)nn2c1CO [Example 3, (2-Methyl-6-((1-methyl-4-phenyl-1H-imidazol-2-yl)ethynyl)imidazo[1,2-b]pyridazin-3-yl)methanol]
13.8	Cc1c(C#N)nc2ccc(/C=C/c3nc(-c4ccccc4)cn3C)nn12 [Example 12, (E)-3-methyl-6-(2-(1-methyl-4-phenyl-1H-imidazol-2-yl)vinyl)imidazo[1,2-b]pyridazine-2-carbonitrile]
1.7	Cc1nc2c(C)c(C)c(OCc3nc(-c4ccccc4)cn3C)nn2c1C [Example 34, 2,3,7,8-Tetramethyl-6-((1-methyl-4-phenyl-1H-imidazol-2-yl)methoxy)imidazo[1,2-b]pyridazine]
2.4	Cc1nn2ccc(CCc3nc(-c4ccccc4)cn3C)nc2c1C [Example 16, 2,3-Dimethyl-5-(2-(1-methyl-4-phenyl-1H-imidazol-2-yl)ethyl)pyrazolo[1,5-a]pyrimidine]
6.4	Cc1c(C(F)F)nc2ccc(CCc3nc(-c4ccccc4)cn3C)nn12 [Example 19, 2-(Difluoromethyl)-3-methyl-6-(2-(1-methyl-4-phenyl-1H-imidazol-2-yl)ethyl)imidazo[1,2-b]pyridazine]
3.3	Cc1nc2ccc(CCc3nc(-c4ccccn4)cn3C)nn2c1C [Example 27, 2,3-Dimethyl-6-(2-(1-methyl-4-(pyridin-2-yl)-1H-imidazol-2-yl)ethyl)imidazo[1,2-b]pyridazine]
1.9	Cn1cc(-c2ccccc2)nc1C#Cc1ccc2nc(C3CC3)c(CO)n2n1 [Example 6, (2-Cyclopropyl-6-((1-methyl-4-phenyl-1H-imidazol-2-yl)ethynyl)imidazo[1,2-b]pyridazin-3-yl)methanol]
1	Cn1cc(-c2ccccc2)nc1C#Cc1ccc2nc(C(F)(F)F)cn2n1 [Example 8, 6-(1-Methyl-4-phenyl-1H-imidazol-2-ylethynyl)-2-trifluoromethyl-imidazo[1,2-b]pyridazine]
